Results: US20050130116A1, “Stable expression of polymorphous forms of human cytochrome p450 2d6” (priority 2000, published 2005)
Where two headings read alike, the source gives them in different places.

Columns and labels:
[1] = tested on: human liver microsomes; conditions: cited from earlier work; for contribution to the 4-hydroxylation of tamoxifen: human liver microsomes (Crewe et al., 1997); for tamoxifen-4-hydroxylation activity: 1 μM tamoxifen (Crewe et al., 1997)
[2] = target: T1, hCYP2D6 (Homo sapiens, UniProt P10635)
T1 sequence (P10635 whole entry): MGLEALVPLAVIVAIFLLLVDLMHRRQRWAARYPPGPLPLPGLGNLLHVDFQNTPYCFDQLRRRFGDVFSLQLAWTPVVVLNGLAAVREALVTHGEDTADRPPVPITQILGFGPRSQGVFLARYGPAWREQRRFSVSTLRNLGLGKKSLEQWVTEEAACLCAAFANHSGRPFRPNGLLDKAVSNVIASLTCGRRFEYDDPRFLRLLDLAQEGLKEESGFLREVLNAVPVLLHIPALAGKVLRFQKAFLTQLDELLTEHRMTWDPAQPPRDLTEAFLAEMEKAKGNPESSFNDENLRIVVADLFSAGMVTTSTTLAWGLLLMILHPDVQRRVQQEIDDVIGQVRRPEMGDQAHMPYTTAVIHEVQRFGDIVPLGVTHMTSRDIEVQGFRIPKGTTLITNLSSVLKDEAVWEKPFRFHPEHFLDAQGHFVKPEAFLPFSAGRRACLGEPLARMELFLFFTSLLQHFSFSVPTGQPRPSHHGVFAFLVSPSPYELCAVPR

[3] = tested on: hCYP2D6 1; conditions: cited from earlier work; for Km: racemic bufuralol
[4] = target: T1, hCYP2D6; assay: Effect of DMSO on tamoxifen-4-hydroxylase activity; type: biochemical; parameters: expressed in transfected cells; host or cells: V79MZ Chinese hamster fibroblasts (V79MZh2D6*1, DSM ACC2446; also V79MZh2D6*1-H and -S)
[5] = target: hCYP2D6*1 and hCYPOR (Homo sapiens, UniProt P10635); conditions: V79MZh2D6*1-hOR homogenate; 200 μM racemic bufuralol
Method: 30 μg of Sca I linearized pSV450h2D6*1 DNA and 1 μg of Sca I linearized pRc/RSV-hCYPOR DNA were transfected. […] As in the case of transfection samples T1-T5, the expression vector pSV450h2D6*1 was employed in a 30fold excess over resistance vector pRc/RSV-hCYPOR.

[6] = target: T2, hCYP2D6 1 (Homo sapiens, UniProt P10635); conditions: V79MZh2D6*1 homogenate, NADPH (Bogni, 1999); racemic bufuralol; cited from earlier work
T2 sequence (P10635 whole entry): as above

[7] = target: T2, hCYP2D6 1; conditions: cited from earlier work
[8] = tested on: V79MZh2D6 cells
[9] = tested on: V79MZh2D6 cells; assay: Supplementation of culture medium with heme sources (cytotoxic limit, bufuralol hydroxylase activity); conditions: up to the cytotoxic limit
[10] = target: hCYP2D6 9 (Homo sapiens, UniProt P10635, DEL281-281); assay: Effect of quinidine on the stability of hCYP2D6 (CO difference spectra); conditions: hCYP2D6 9 (V79MZh2D6*9); quinidine added to the culture medium during cultivation
hCYP2D6 9, sequence (P10635 with tags, fused parts or gaps DEL281-281): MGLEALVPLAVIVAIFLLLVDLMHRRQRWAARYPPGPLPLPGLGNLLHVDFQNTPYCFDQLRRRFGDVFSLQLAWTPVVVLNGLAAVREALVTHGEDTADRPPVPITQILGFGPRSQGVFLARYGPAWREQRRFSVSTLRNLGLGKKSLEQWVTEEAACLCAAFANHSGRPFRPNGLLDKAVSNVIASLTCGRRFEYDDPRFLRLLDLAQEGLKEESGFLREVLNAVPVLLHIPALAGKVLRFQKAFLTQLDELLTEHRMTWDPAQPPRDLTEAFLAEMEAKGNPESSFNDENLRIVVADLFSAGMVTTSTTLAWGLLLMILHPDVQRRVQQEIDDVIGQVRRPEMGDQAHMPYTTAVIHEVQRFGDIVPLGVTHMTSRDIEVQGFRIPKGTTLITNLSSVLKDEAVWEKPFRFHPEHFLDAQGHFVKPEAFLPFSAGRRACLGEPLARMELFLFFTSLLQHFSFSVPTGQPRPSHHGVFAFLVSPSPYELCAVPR
Method: For the preparation of a cell homogenate, the V79MZ cells were cultured in at least three 250 ml tissue culture flasks up to a confluence of 80-100%. […] The medium was discarded, followed by rinsing twice with 5 ml icecold buffer (100 mM potassium phosphate, pH 7.4). The cells were loosened from the dish by means of a rubber scraper into 4 ml of icecold buffer, combined and pelleted by centrifugation for 10 min at 1500×g and 4° C. […] All aliquots were shock frozen in liquid nitrogen to disrupt the cells and afterwards stored at −80° C. until use.
The supernatant was introduced into a 2 ml glas-on-glas homogenizator, reduced by adding several crystals of sodium dithionite (Sigma, Deisenhofen) followed by 15 strokes, and split up between two quartz cuvettes.

[11] = AHH-1 TK+/− (h2D6Metv2) microsomes, NADPH (Penman et al., 1993)
[12] = Hep G2 cell lysate, CuOOH (Tyndale et al., 1991a)
[13] = S. cerevisiae W(R) microsomes, Yred/NADPH (Oscarson et al., 1997)
[14] = Sf9 insect cells membranes, CYPOR/NADPH (Evert et al., 1997)
[15] = Sf9 insect cells membranes, CYPOR/NADPH (Patten et al., 1996)
[16] = AHH-1 TK+/− (h2D6Val/OR) microsomes, CYPOR/NADPH (Gentest, produkt # M117r)
[17] = E. coli, purified, CYPOR/NADPH (Gillam et al., 1995)
[18] = Sf9 insect cells cell extract, CYPOR/NADPH (Paine et al., 1996)

## CC/C(=C(\c1ccccc1)c1ccc(OCCN(C)C)cc1)c1ccccc1 [tamoxifen]
[1]; hCYP2C9*1
  contribution to the 4-hydroxylation of tamoxifen: +
[1]; hCYP2D6*1
  contribution to the 4-hydroxylation of tamoxifen: +
[1]; hCYP2E1
  contribution to the 4-hydroxylation of tamoxifen: −
[1]; hCYP3A4
  contribution to the 4-hydroxylation of tamoxifen: +
[1]; human liver microsomes of extensive metabolizers
  tamoxifen-4-hydroxylation activity: 1.1-3 pmol/min/mg protein
[1]; human liver microsomes of poor metabolizers
  tamoxifen-4-hydroxylation activity: 0.7-0.8 pmol/min/mg protein

## CC/C(=C(\c1ccccc1)c1ccc(OCCNC)cc1)c1ccccc1 [Z-N-demethyl-tamoxifen]
[2]
  metabolism by V79MZh2D6 homogenate (hCYP2D6-catalyzed hydroxylation): proceeded well

## CC/C(=C(\c1ccccc1)c1ccc(OCCN)cc1)c1ccccc1 [Z-N-didemethyl-tamoxifen]
[2]
  metabolism by V79MZh2D6 homogenate (hCYP2D6-catalyzed hydroxylation): negligible

## CCc1cccc2cc([C@H](O)CNC(C)(C)C)oc12 [(+)-bufuralol]
[3]; AHH-1 TK+/− (2D6Met/Hol) cell lysate, NADPH (Crespi et al., 1991)
  Vmax (+): 68 ± 0 pmol/mg/min
[3]; AHH-1 TK+/− (h2D6Metv2) cell lysate, NADPH (Penman et al., 1993)
  Vmax (+): 126 ± 1 pmol/mg/min
[3]; [11]
  Reaction rate (+): 4.5 min⁻¹
  Vmax (+): 723 ± 35 pmol/mg/min
[3]; COS-1 cells homogenate, CYPOR/NADPH (Johansson et al., 1994)
  Vmax (+): 3.4 pmol/mg/min
[3]; COS-1 cells homogenate, NADPH (Kagimoto et al., 1990)
  Vmax (+): 20 to 50 pmol/mg/min
[3]; [12]
  Reaction rate (+): 2.3 min⁻¹
  Vmax (+): 34.1 pmol/mg/min
[3]; [13]
  Reaction rate (+): 10 min⁻¹
  Vmax (+): 116 pmol/mg/min
[3]; [14]
  Reaction rate (+): 26.2 ± 0.4 min⁻¹
  Vmax (+): 17500 ± 2700 pmol/mg/min
[3]; [15]
  Reaction rate (+): 0.96 min⁻¹
  Vmax (+): 500 to 1000 pmol/mg/min

## C[S+](C)[O-] [DMSO, dimethylsulfoxide]
[4]; 10% DMSO
  tamoxifen-4-hydroxylase activity relative to that obtained at […] DMSO: about 20%
[4]; up to a DMSO concentration of […]
  effect on tamoxifen-4-hydroxylase activity: only sligthly affected

## CCc1cccc2cc(C(O)CNC(C)(C)C)oc12 (racemic) [racemic bufuralol]
[5]
  bufuralol hydroxylase activity: 143 ± 6 pmol/mg/min
[6]
  Vmax (+/−): 153 ± 26 pmol/mg/min
[7]; [16]
  Reaction rate (+/−): 10.38 min⁻¹
  Vmax (+/−): 550 pmol/mg/min
[7]; purified from human liver, CYPOR/NADPH (Distlerath et al., 1985)
  Reaction rate (+/−): 4.4 to 6.4 min⁻¹
[3]; [17]
  Reaction rate (+/−): 1.2 ± 0.1 min⁻¹
  Km: 39 ± 5 µM
[3]; [18]
  Reaction rate (+/−): 12.23 min⁻¹
  Vmax (+/−): 370 pmol/mg/min
  Km: 4.7 µM

## CC/C(=C(\c1ccccc1)c1ccc(OCC[N+](C)(C)[O-])cc1)c1ccccc1 [Z-Tamoxifen-N-oxide]
[2]
  metabolism by V79MZh2D6 homogenate (hCYP2D6-catalyzed hydroxylation): only to a minor extent

## hemin chloride
[8]
  cytotoxic limit: 10 µM
[9]
  bufuralol hydroxylase activity per mg total protein in the cell homogenate after supplementation: no increased bufuralol hydroxylase activity

## C=C[C@H]1C[N@@]2CC[C@H]1C[C@@H]2[C@@H](O)c1ccnc2ccc(OC)cc12 [quinidine]
[10]
  increase in the amount of cytochrome P450: 4-6 fold
